Several values for one entry are separate records, joined by “and”; a condition that tells them apart may be missing. Identical values can stand only once. Counter-ions that a name gives are not always drawn. Like-named read-outs stand apart in the source and are kept apart here.

Data set [1] concerns formalin-induced flinching. The experiment in a line: animal or person. It is filed as in vivo, male Sprague-Dawley rats. The following applies: for inhibition in vivo at 0.3 µM: Rattus norvegicus, read-out: Formalin (% A @ 300 nM) i. paw.
Data set [2] concerns the target cloned human kappa receptor (Homo sapiens, UniProt P41145). The experiment in a line: biochemical. It is filed as binding.
[3] abbreviates: read-out: Ki(nM) [3H]-Diprenorphin κ.
Setting [4] is: Table IA, read-out: Ki(nM) (3H)-Diprenorphin.

cloned human kappa receptor, sequence (P41145 whole entry): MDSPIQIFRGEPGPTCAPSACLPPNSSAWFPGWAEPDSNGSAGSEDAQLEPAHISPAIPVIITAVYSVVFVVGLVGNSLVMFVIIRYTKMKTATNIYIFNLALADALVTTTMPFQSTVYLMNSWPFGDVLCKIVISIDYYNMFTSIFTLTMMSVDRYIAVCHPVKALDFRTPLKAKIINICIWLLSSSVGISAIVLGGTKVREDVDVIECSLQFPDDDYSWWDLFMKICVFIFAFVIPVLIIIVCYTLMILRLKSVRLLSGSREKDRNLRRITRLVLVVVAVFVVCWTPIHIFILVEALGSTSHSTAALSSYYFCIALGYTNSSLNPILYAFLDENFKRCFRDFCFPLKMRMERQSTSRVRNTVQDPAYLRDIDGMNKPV

In the case of “N-[1S. 2S-trans-4-Trifluoromethyl-N-methyl-N-[2-(1-pyrrolidinyl)cyclohexyl]-phenylacetamido]glycine Hydrochloride [Example 4j]”, the “Formalin (% A @ 300 μg i-paw)” value in data set [1] (rat, in vivo) is reported as 91% @ 300. Further, the Ki – broadly, a measure of affinity in units of concentration, obtained from inhibition or displacement – in data set [2] (read-out: Ki(nM) [3H]-Diprenorphin) was determined as 10.3 nM.
With `COc1cc(CC(=O)N(C)[C@H](CN2CCCC2)c2ccccc2)c(S(=O)(=O)N2CCCC2)cc1OC` [Example 134, 2-[2-(N-Pyrrolidinesulfamoyl)-4,5-dimethoxyphenyl]-N-methyl-N-[(1S)-1-phenyl-2-[(1-pyrrolidinyl)ethyl]]acetamide], the “Late Phase Formalin (i. paw), % @ 300” value in data set [1] (rat, in vivo) turned out to be 99% @ 300. In data set [2] (Ki (nM) [3H]-Diprenorphin κ), this compound registered an inhibitory constant (Ki) of 0.26 nM.
As to `COc1cc(CC(=O)N(C)[C@H](CN2CCCC2)c2ccccc2)c(S(=O)(=O)N2CCN(C)CC2)cc1OC` [Example 138], the “Late Phase Formalin (i. paw), % @ 300” value in data set [1] (rat, in vivo) was 80% @ 300. Besides, the Ki in data set [2] (setting [3]) came out at 1.3 nM.
As to “N-[1R,2R-trans-4-Trifluoromethyl-N-methyl-N-[2-(1-pyrrolidinyl)cyclohexyl]-phenylacetamido]glycine Hydrochloride [Example 4k]”, in data set [1] (rat, in vivo), the “Formalin (% A @ 300 μg i-paw)” value was determined as 80% @ 300. The “[3H]-Diprenorphin, % @ 1 μM” value in data set [2] is reported as 28% @ 1 μM.
Consider `CN(C(=O)Cc1ccc(Cl)c(Cl)c1)[C@H](CN1CCCC1)c1cccc(NS(N)(=O)=O)c1` (racemic) [Example 3c, 2-(3,4-Dichlorophenyl)-N-methyl-N-[(1R,S)-1-(3-sulfamidophenyl)-2-(1-pyrrolidinyl)ethyl]acetamide hydrochloride], for which the “Late Phase Formalin A50” value in data set [1] (rat, in vivo) turned out to be 0.27 mg/kg. In addition, affinity in data set [2] (Ki (nM) [3H]-Diprenorphin κ) was put at a Ki of 0.12 nM.
As to `CS(=O)(=O)N1CCN(C(=O)Cc2ccc(C(F)(F)F)cc2)C(CN2CC[C@H](O)C2)C1` (stereo partly drawn) [Example 1nn, 4-Methylsulphonyl-1-[(4-α,α,α-triflouromethylphenyl)acetyl]-2-(R,S)-[(3-(S)-hydroxy-1-pyrrolidinyl)methyl]piperazine hydrochloride], in data set [1] (rat, in vivo, sc), the “Formalin A50 mg/kg s.c.” value worked out at 7.1 mg/kg. The inhibition constant (Ki) in data set [2] (Ki, nM 3H-Diprenorphin) turned out to be 2.33 nM.
With `COc1ccc(CC(=O)N(C)[C@H](CN2CC[C@H](O)C2)c2ccccc2)cc1NS(C)(=O)=O` [Example 127, 2-(3-N-Methylsulfonamido-3-amino-4-methoxyphenyl)-N-methyl-N-[(1S)-1-phenyl-2-[1-(3S)-(3-hydroxypyrrolidinyl)ethyl]]acetamide], the “Late Phase Formalin (i. paw), % @ 300” value in data set [1] (rat, in vivo) was found to be 94% @ 300. For the same compound, in data set [2] (Ki (nM) [3H]-Diprenorphin κ), the Ki amounted to 0.82 nM.
Take `CNS(=O)(=O)c1ccccc1CC(=O)N1CCN(C(=O)OC)CC1CN1CCCC1` (racemic) [Example 1e, Methyl-4-[(2-[N-methylamino)sulfamyl]phenyl)acetyl]-3-(R,S)-[(1-pyrrolidinyl)methyl]-1-piperazinecarboxylate hydrochloride]: the inhibition in vivo at 0.3 µM in data set [1] was determined as 55%. Also, the inhibitory constant (Ki) in data set [2] (Ki, nM 3H-Diprenorphin) was found to be 14 nM.
On to `COC(=O)N1CCN(C(=O)Cc2ccc(C(F)(F)F)cc2[N+](=O)[O-])C(CN2CCC[C@H]2CO)C1` (mixture of isomers) [Example 1m, Methyl-4-[(2-nitro-4-α,α,α-trifluoromethylphenyl)acetyl]-3-(R,S)-[(2-(S)-pyrrolidinemethanol)methyl]-1-piperazinecarboxylate hydrochloride], for which the “Formalin A50 mg/kg s.c.” value in data set [1] (rat, in vivo, sc) is 1.7 mg/kg. The compound further yielded an inhibition constant Ki in data set [2] (Ki, nM 3H-Diprenorphin) of 49.5 nM.
Consider `CN(C(=O)Cc1ccc(Cl)c(Cl)c1)[C@H]1c2cc(NC(=O)/C=C\C(=O)O)ccc2CC[C@@H]1N1CCCC1` [II-24], for which the “Late Phase Formalin, % @ 300 μg” value in data set [1] (rat, in vivo) amounted to 69% @ 300 μg. Also, affinity in data set [2] (Ki (nM) [3H] Diprenorphin κ) was put at a Ki of 28 nM.
For `CNS(=O)(=O)c1cc(OC)ccc1CC(=O)N(C)[C@H](CN1CCCC1)c1ccccc1` [Example 145, 2-[2-(N-Methylsulfamoyl)-4-methoxyphenyl]-N-methyl-N-[(1S)-1-phenyl-2-[(1-pyrrolidinyl)ethyl]]acetamide], the “Late Phase Formalin (i. paw), % @ 300” value in data set [1] (rat, in vivo) worked out at 83% @ 300. Further, in data set [2] (setting [3]), the Ki stood at 20.5 nM.
For the compound `CC(=O)N1CCN(C(=O)Cc2ccc(C(F)(F)F)cc2)C(CN2CCCC2)C1` (racemic) [(R,S-10b), hydrochloride], the “Late Phase Formalin, % @ 300; i.paw” value in data set [1] (rat, in vivo) came out at 89% @ 300. Moreover, the Ki in data set [2] (Ki, nM 3H-Diprenorphin) was 26 nM and 24 nM.
With `COc1ccc(C(CN2CCCC2)N(C)C(=O)Cc2ccccc2NS(C)(=O)=O)cc1` (racemic) [Example 128], the “Late Phase Formalin (i. paw), % @ 300” value in data set [1] (rat, in vivo) is 56% @ 300. Also, in data set [2] (Table IIIB, read-out: Ki(nM) [3H]-Diprenorphin κ), the Ki is 110 nM.
In the case of `COC(=O)N1CCN(C(=O)Cc2ccc(S(C)(=O)=O)cc2)C(CN2CCC[C@H]2CO)C1` (mixture of isomers) [Example 1o, Methyl-4-[(4-methylsulphonylphenyl)acetyl]-3-(R,S)-[(2-(S)-pyrrolidinemethanol)methyl]-1-piperazinecarboxylate hydrochloride], the inhibition in vivo at 0.3 µM in data set [1] amounted to 41%. Moreover, the Ki in data set [2] (setting [4]) was 133 nM.
On to `CS(=O)(=O)O[C@H]1CCN(CC2CN(S(C)(=O)=O)CCN2C(=O)Cc2ccc(Cl)c(Cl)c2)C1` (stereo partly drawn) [Example 1jj, 4-Methanesulfonyl-1-[(3,4-dichlorophenyl)acetyl]-2-(R,S)-[3-(S)-methanesulfonate-1-(pyrrolidinyl)methyl]piperazine hydrochloride], for which, in data set [1], the inhibition in vivo at 0.3 µM was 49%. The same compound showed a Ki in data set [2] (Ki, nM 3H-Diprenorphin) of 11.5 nM.
As to `CN(C(=O)Cc1cc2c(cc1S(=O)(=O)N(C)C)OCO2)[C@H](CN1CCCC1)c1ccccc1` [Example 132, 2-[2-(N-Dimethylsulfamoyl)-4,5-methylenedioxyphenyl]-N-methyl-N-[(1S)-1-phenyl-2-[(1-pyrrolidinyl)ethyl]]acetamide], in data set [1] (rat, in vivo), the “Late Phase Formalin (i. paw), % @ 300” value is 100% @ 300. In data set [2] (Ki (nM) [3H]-Diprenorphin κ), this compound showed a Ki of 0.25 nM.
Taken in the same sequence, the figures for `CN(C(=O)Cc1ccc(OCc2ccccc2)c(NS(C)(=O)=O)c1)[C@H](CN1CCCC1)c1ccccc1` [Example 123, 2-(3-N-Methylsulfonamido-3-amino-4-benzyloxyphenyl)-N-methyl-N-[(1S)-1-phenyl-2-(1-pyrrolidinyl)ethyl]acetamide] were 87% @ 300 and 23.6 nM.
On to `CCOP(=O)(Nc1cccc([C@@H](CN2CCCC2)N(C)C(=O)Cc2ccc(Cl)c(Cl)c2)c1)OCC` [Example 3g, 2-(3,4-Dichlorophenyl)-N-methyl-N-[(1S)-1-[3-(diethyl Phosphoryl)amino]phenyl)-2-(1-pyrrolidinyl)ethyl]acetamide hydrochloride], for which, in data set [1] (rat, in vivo), the “Late Phase Formalin A50” value was found to be 4.4 mg/kg. The compound also registered a Ki in data set [2] (Ki (nM) [3H]-Diprenorphin κ) of 0.12 nM.
With `COC(=O)N1CCN(C(=O)Cc2ccc(Cl)c(Cl)c2)C(CN2CCCC2CO)C1` [Example 1l, Methyl-4-[(3,4-dichlorophenyl)acetyl]-3-(R)-[(2-(S)-pyrrolidinemethanol)methyl]-1-piperazinecarboxylate hydrochloride], the “Formalin A50 mg/kg s.c.” value in data set [1] (rat, in vivo, sc) was 1.7 mg/kg. In data set [2] (Ki, nM 3H-Diprenorphin), this compound displayed a Ki of 3.5 nM.
As to `COc1ccc(CC(=O)N(C)[C@H](CN2CCCC2)c2ccccc2)cc1NS(C)(=O)=O` [Example 122, 2-(3-N-Methylsulfonamido-3-amino-4-methoxyphenyl)-N-methyl-N-[(1S)-1-phenyl-2-(1-pyrrolidinyl)ethyl]acetamide methane sulfonate], in data set [1] (rat, in vivo), the “Late Phase Formalin (i. paw), % @ 300” value turned out to be 85% @ 300. In data set [2] (Ki (nM) [3H]-Diprenorphin κ), affinity was put at a Ki of 0.8 nM.
As to `O=C(Cc1ccc(C(F)(F)F)cc1)N1CCN(C(=O)C(F)(F)F)CC1CN1CCCC1` (racemic) [Example 1h, 4-Trifluoroacetyl-1-[(-4-trifluoromethylphenyl)acetyl]-2-(R,S)-(1-pyrrolidinyl)methyl]piperazine hydrochloride], in data set [1], the inhibition in vivo at 0.3 µM stood at 100%. Further, the Ki in data set [2] (Ki, nM 3H-Diprenorphin) was 50 nM.
Regarding `CN(C(=O)Cc1ccc(O)c(N(S(C)(=O)=O)S(C)(=O)=O)c1)[C@H](CN1CCCC1)c1ccccc1` [Example 130, 2-(3-N-Bis-methylsulfonamido-3-amino-4-hydroxyphenyl)-N-methyl-N-[(1S)-1-phenyl-2-(1-pyrrolidinyl)ethyl]acetamide], the “Late Phase Formalin (i. paw), % @ 300” value in data set [1] (rat, in vivo) is 46% @ 300. This compound also came in with an inhibition constant (Ki) in data set [2] (Ki (nM) [3H]-Diprenorphin κ) of 1.3 nM.
With `COc1cc(CC(=O)N(C)[C@H](CN2CC[C@H](O)C2)c2ccccc2)c(S(=O)(=O)N2CCOCC2)cc1OC` [Example 141, 2-[2-N-(Morpholinesulfamoyl)-4,5-dimethoxyphenyl]-N-methyl-N-[(1S)-1-phenyl-2-[1-(3S)-(3-hydroxypyrrolidinyl)ethyl]]acetamide], the “Late Phase Formalin (i. paw), % @ 300” value in data set [1] (rat, in vivo) was 98% @ 300. The compound further registered an inhibitory constant (Ki) in data set [2] (Ki (nM) [3H]-Diprenorphin κ) of 1.3 nM.
Turning to `COC(=O)N1CCN(C(=O)Cc2ccc(C(F)(F)F)cc2NCC(=O)O)C(CN2CCCC2)C1` (racemic) [Example 1a, Methyl-4-[-2-glycyl-4-(trifluoromethylphenyl)acetyl]-3-(R,S)-[(1-pyrrolidinyl)-methyl]-1-piperazinecarboxylate], the melting point (commonly the temperature of the solid-liquid transition) is 165 to 170 °C. The inhibition constant (Ki) in data set [2] (setting [4]) was found to be 248 nM.
Turning to `CNS(=O)(=O)c1cc(CC(=O)N(C)[C@@H]2CCCC[C@H]2N2CCCC2)ccc1F.Cl` (racemic) [Example 4i, (±)-trans-4-Fluoro-3-methylsulfamoyl-N-methyl-N-[2-(1-pyrrolidinyl)cyclohexyl]phenylacetamide hydrochloride], the melting point fell in the range of 265 to 267 °C. The “[3H]-Diprenorphin, % @ 1 μM” value in data set [2] is 31% @ 1 μM.
For `CNS(=O)(=O)c1cccc(CC(=O)N(C)[C@H](CN2CCCC2)c2ccccc2)c1.Cl` [Example 3q, 3-(N-Methylsulfamoyl)-phenyl-N-methyl-N-[(1S)-1-phenyl-2-(1-pyrrolidinyl)ethyl]acetamide hydrochloride], the melting point was > 250 °C (dec.). The Ki in data set [2] (Ki (nM) [3H]-Diprenorphin κ) was 3.2 nM.
Regarding `CN(C(=O)C(c1ccccc1)c1ccccc1)[C@H](CN1CC[C@H](O)C1)c1ccccc1` [III-43, reference compound], the “Late Phase Formalin A50, mg/ms (i-paw)” value in data set [1] (rat, in vivo) was 59 mg/ms (i-paw) 28 mg/kg (sc). The “Late Phase Formalin A50, mg/kg (sc)” value in data set [1] (rat, in vivo, sc) is reported as 59 mg/ms (i-paw) 28 mg/kg (sc).

For the origin of these results see patent US20050020576A1, “Kappa agonist compounds and pharmaceutical formulations thereof” (priority 1996, published 2005).
